According to patent US10196424B2, “Oral peptide inhibitors of interleukin-23 receptor and their use to treat inflammatory bowel diseases” (Protagonist Therapeutics, Inc., priority 2014, dated 2019):

Test system: DSS-induced colitis in Sprague Dawley rats
Assay: Rat colitis model: 9 days of 3% DSS-containing drinking water
Format: in vivo
Settings: 100 mg/kg PO, QD
Procedure: Rat Colitis Model: 9 Days of 3% DSS-Containing Drinking Water
In this model, colitis was induced in SD rats by 9 days of ad lib exposure to drinking water containing 3% DSS. The disease activity index (DAI) score and ratio of colon weight:colon length were compared between three study groups (n=6 rats/group): vehicle, 3% DSS, and 3% DSS with positive control (sulfasalazine administered at 100 mg/kg PO, QD).
Acute colitis was induced by feeding female Sprague Dawley rats with 3% (wt/vol) DSS dissolved in drinking water. […] A neutralizing anti-IL-23p19 antibody was used as a comparator, and was administered intraperitoneally at 4 mg/kg on the same day and fifth day after starting DSS. […] At necropsy, the entire colon was removed from the cecum to the rectum. The colon was measured for length, flushed with PBS to remove feces, weighed, and opened longitudinally to determine macroscopic score.
Statistical analysis for significance was compared to the vehicle treated group and was determined using Student's T-test (GraphPad Prism). Differences were noted as significant *p≤0.05, **p≤0.01, ***p≤0.001, ****p≤0.0001.

O=C(O)c1cc(/N=N/c2ccc(S(=O)(=O)Nc3ccccn3)cc2)ccc1O [sulfasalazine]
terminal ratio of colon weight:colon length (3% DSS rats with and without treatment): significant | disease activity index (DAI) score (3% DSS rats, compared to DSS alone, from Day 5): attenuated the disease score
